Like-named read-outs stand apart in the source and are kept apart here. Marks after values point to notes of the source that are not given here.
Key:
[1] = system: hyperlipidaemic rats; assay: Triton WR1339 (tyloxapol) induced hyperlipidaemia in rats; assay type: in vivo, Wistar rats; conditions: tyloxapol 200 mg/kg i.p.; for inhibition in vivo at 150 µmol/kg / inhibition in vivo at 300 µmol/kg / inhibition in vivo at 500 µmol/kg: Rattus norvegicus, ip, 24 h; for inhibition in vivo at 300 µmol/kg: 300 μmol/kg i.p.; for inhibition in vivo at 500 µmol/kg: 500 μmol/kg i.p.
Text: The pleiotropic effects of statins, used as hypolipidaemic drugs, include antioxidant ability and direct increase of eNOS activity, in addition to inhibition of 3-hydroxy-3-methylglutaryl coenzyme A (HMG-CoA) reductase. […] The systemic administration of Triton-WR1339 (tyloxapol) to rats induces a biphasic elevation of plasma cholesterol, atherogenic VLDL cholesterol and LDL cholesterol, as well as triglyceride levels. […] Agents shown to be active in phase I are considered to interfere with cholesterol biosynthesis.
κ-Carrageenan and lipoxygenase type I-B from soybean were purchased from Sigma (St. Louis, MO, U.S.A.). For the in vivo experiments, Wistar rats (180–220 g, 3–4 months old) were kept in the Centre of the School of Veterinary Medicine (EL54 BIO42), Aristotelian University of Thessaloniki, which is registered by the official state veterinary authorities (presidential degree 56/2013, in harmonization with the European Directive 2010/63/EEC). The experimental protocols were approved by the Animal Ethics Committee of the Prefecture of Central Macedonia (no. 270079/2500).
Hyperlipidaemia was induced by the i.p. administration of Triton WR 1339 (200 mg/kg) to rats. […] Blood was taken from the aorta after 24 h, for the determination of plasma total cholesterol, LDL-cholesterol and triglyceride concentrations, using commercial kits.

[2] = In vitro nitrogen monoxide release (Griess reagent)
Description: Due to their poor aqueous solubility, compounds 1, 3-7 and 9 were dissolved in 7/3 (v/v) mixture of DMSO/water at various concentrations and incubated overnight at room temperature in the presence of cadmium. S-nitroso-N-acetylpenicillamine (SNAP) was dissolved either in DMSO/water 7/3 or in water and treated as above.
Aliquots were taken from each sample and added to an equal volume of N-naphthylaminoethylamine (0.2%) and sulfanilamide (2%) solution in 3 N hydrochloric acid (Griess reagent). Appropriate sodium nitrite solutions in the same DMSO/water mixture were used for the construction of the standard curve and values were identical to those obtained with aqueous solutions. Nitric oxide release was estimated spectrophotometrically (540 nm).

[3] = biological target: T1, soybean lipoxygenase 1-B (Glycine max, UniProt P08170); assay: In vitro soybean lipoxygenase inhibition, linoleate as substrate; assay type: biochemical; conditions: sodium linoleate 100 μM; after 7 min of incubation; pH 9.0, 28 °C
T1 construct: purchased Sigma (St. Louis, MO, U.S.A.)
T1 sequence (P08170 1-839): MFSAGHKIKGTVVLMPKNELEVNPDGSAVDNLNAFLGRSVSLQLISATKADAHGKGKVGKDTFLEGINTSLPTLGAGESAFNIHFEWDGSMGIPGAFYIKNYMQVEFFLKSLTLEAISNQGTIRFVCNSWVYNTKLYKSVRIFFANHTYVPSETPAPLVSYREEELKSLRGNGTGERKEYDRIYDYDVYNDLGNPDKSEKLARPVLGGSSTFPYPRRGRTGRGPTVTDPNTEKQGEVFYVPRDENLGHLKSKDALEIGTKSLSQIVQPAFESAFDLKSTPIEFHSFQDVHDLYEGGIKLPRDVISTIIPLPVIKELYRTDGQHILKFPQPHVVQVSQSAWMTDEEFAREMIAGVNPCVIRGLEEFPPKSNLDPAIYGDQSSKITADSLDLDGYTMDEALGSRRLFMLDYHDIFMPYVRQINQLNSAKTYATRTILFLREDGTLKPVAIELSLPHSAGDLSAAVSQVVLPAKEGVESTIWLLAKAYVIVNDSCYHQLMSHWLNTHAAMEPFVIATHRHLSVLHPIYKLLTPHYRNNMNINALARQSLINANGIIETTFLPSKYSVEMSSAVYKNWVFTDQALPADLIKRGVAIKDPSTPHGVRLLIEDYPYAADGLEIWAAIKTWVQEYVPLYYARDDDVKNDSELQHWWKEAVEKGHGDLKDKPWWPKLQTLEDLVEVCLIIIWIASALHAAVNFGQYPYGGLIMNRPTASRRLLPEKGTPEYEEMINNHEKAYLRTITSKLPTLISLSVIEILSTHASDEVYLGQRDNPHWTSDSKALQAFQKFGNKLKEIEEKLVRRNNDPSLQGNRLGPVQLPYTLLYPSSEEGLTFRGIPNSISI
Description: The reaction mixture contained the examined compounds (in absolute ethanol, 1–300 μM), soybean lipoxygenase (in saline, 250 u/mL) and sodium linoleate (100 μM), in Tris–HCl buffer, pH 9.0. The reaction was monitored for 7 min at 28 °C, recording the absorbance at 234 nm. […]

[4] = system: carrageenan-induced rat paw oedema; assay: Carrageenan-induced rat paw oedema; assay type: in vivo, Wistar rats; conditions: 0.15 mmol/kg i.p., oedema after 3.5 h, vs carrageenan-only controls; for inhibition in vivo at 150 µmol/kg: Rattus norvegicus, ip, read-out: % Oedema Reduction
Description: The carrageenan-induced paw oedema is a well-known and widely used model of acute inflammation. The response to carrageenan inflammation may be divided into three phases. In the first phase (after 1.5 h), histamine and serotonin are released, the second phase (1.5–2.5 h after carrageenan administration) is mediated by kinins, whereas, in the third phase, more than two hours post administration, neutrophil infiltration, prostaglandin production and release of pro-inflammatory cytokines are involved. In this work, oedema was measured 3.5 h post injection.
κ-Carrageenan and lipoxygenase type I-B from soybean were purchased from Sigma (St. Louis, MO, U.S.A.).
The tested compounds (in water with a few drops of Tween 80) were given i.p. (0.15 mmol/kg) to rats, just after the i.d. injection of 0.1 mL of an aqueous carrageenan solution (1% w/v) in the hind paw of rats. The produced oedema, after 3.5 h, was estimated as paw weight increase.

[5] = system: rat hepatic microsomal membrane lipid peroxidation; assay: Fe2+/ascorbate induced lipid peroxidation, TBA reactive material; assay type: biochemical; conditions: after 45 min of incubation; read-out: Inhibition of Lipid Peroxidation IC50
Description: (§1) The antioxidant activity of compounds was estimated by the inhibition of rat hepatic microsomal membrane lipid peroxidation, induced by Fe^+2/ascorbate, estimated as 2-thiobarbituric acid (TBA) reactive material, and by their interaction with the N-centred 1,1-diphenyl-2-picrylhydrazyl (DPPH) stable free radical. […] The percent interaction with DPPH and the IC50 values of compounds 7–9 on rat hepatic microsomal membrane lipid peroxidation, after 45 min of incubation is shown in Table 4.
The peroxidation of heat-inactivated (90°, 90 s) rat liver microsomal fraction was induced by ascorbic acid (0.2 mM) and ferrous sulphate (10 μΜ). The studied compounds, in dimethylsulfoxide, were added at concentrations 1 μM–1 mM. Aliquots were taken from the incubation mixture (37 °C) for 45 min. Lipid peroxidation was assessed spectrophotometrically (535/600 nm) as 2-thiobarbituric acid reactive material. All compounds and solvents were found not to interfere with the assay.

[6] = Interaction with the stable radical DPPH; conditions: DPPH 200 μΜ, after 30 min
Description: as §1
Compounds (in absolute ethanol, final concentrations 25–200 μM) were added to an ethanolic solution of DPPH (final concentration 200 μM) at room temperature (22 ± 2 °C). Absorbance (517 nm) was recorded after 30 min.

[7] = 150 μmol/kg i.p., plasma after 24 h, read-out: % Reduction LDL-C (LDL cholesterol)
[8] = 150 μmol/kg i.p., plasma after 24 h, read-out: % Reduction TC (total cholesterol)
[9] = 150 μmol/kg i.p., plasma after 24 h, read-out: % Reduction TG (triglycerides)
[10] = compound 31.25 μM, DMSO/water 7/3, overnight, cadmium
[11] = compound 62.5 μM, DMSO/water 7/3, overnight, cadmium
[12] = compound 125 μM, DMSO/water 7/3, overnight, cadmium
[13] = compound 250 μM, DMSO/water 7/3, overnight, cadmium
[14] = compound 500 μM, DMSO/water 7/3, overnight, cadmium
[15] = read-out: % Reduction LDL-C (LDL cholesterol)
[16] = read-out: % Reduction TC (total cholesterol)
[17] = read-out: % Reduction TG (triglycerides)

| Compound | inhibition in vivo at 150 µmol/kg [1, 7] | inhibition in vivo at 150 µmol/kg [1, 8] | inhibition in vivo at 150 µmol/kg [1, 9] | NO Release [2, 10] | NO Release [2, 11] | NO Release [2, 12] | NO Release [2, 13] | NO Release [2, 14] | IC50 [3] | inhibition in vivo at 150 µmol/kg [4] | further results |
| --- | --- | --- | --- | --- | --- | --- | --- | --- | --- | --- | --- |
| CC(C)Cc1ccc(C(C)C(=O)OCCO[N+](=O)[O-])cc1 (racemic) [Compound 1, (±)-2-(Nitrooxy)ethyl 2-(4-isobutylphenyl)propanoate] | 80% | 62.2% | 30.1% | 7 μΜ | 17 μΜ | 40 μΜ | 82 μΜ | 116 μΜ | 46 µM | 76% | – |
| CC(C)Cc1ccc(C(C)C(=O)OCCc2ccc([N+](=O)[O-])cc2)cc1 (racemic) [Compound 2, (±)-4-Nitrophenethyl 2-(4-isobutylphenyl)propanoate] | – | – | – | – | – | – | – | – | 24 µM | 53% | – |
| CC(C(=O)OCCO[N+](=O)[O-])c1cccc(C(=O)c2ccccc2)c1 (racemic) [Compound 5, (±)-2-(Nitrooxy)ethyl 2-(3-benzoylphenyl)propanoate] | 57.8% | 46.6% | 40.2% | 4 μΜ | 11 μΜ | 26 μΜ | 57 μΜ | 100 μΜ | 86 µM | 75% | – |
| COc1ccc2cc(C(C)C(=O)OCCO[N+](=O)[O-])ccc2c1 (single isomer, unassigned; (+)) [Compound 4, (+)-2-(Nitrooxy)ethyl 2-(6-methoxynaphthalen-2-yl)propanoate] | 84.6% | 80% | 38.9% | 2.5 μΜ | 7 μΜ | 17 μΜ | 37 μΜ | 73 μΜ | > 300 µM | 70% | % Oedema Reduction [4]: 70 ** % |
| O=C(/C=C/c1ccccc1)OCCO[N+](=O)[O-] [Compound 6, (E)-2-(Nitrooxy)ethyl cinnamate] | 74.8% | 70.9% | 54.4% | 5 μΜ | 11 μΜ | 22 μΜ | 51 μΜ | 98 μΜ | 220 µM | 61% | – |
| CC(C)Cc1ccc(C(C)C(=O)O)cc1 (stereo not shown) [Ibuprofen, reference compound] | – | – | – | – | – | – | – | – | – | 36% | inhibition in vivo at 300 µmol/kg [1, 15]: 41.6%; inhibition in vivo at 300 µmol/kg [1, 16]: 41%; inhibition in vivo at 300 µmol/kg [1, 17]: 38% |
| COc1ccc2c(c1)c(CC(=O)O)c(C)n2C(=O)c1ccc(Cl)cc1 [Indomethacin, reference compound] | – | – | – | – | – | – | – | – | – | 42% | – |
| COc1ccc2cc([C@H](C)C(=O)O)ccc2c1 [Naproxen, reference compound] | – | – | – | – | – | – | – | – | – | 11% | inhibition in vivo at 500 µmol/kg [1, 15]: 25.5%; inhibition in vivo at 500 µmol/kg [1, 16]: 53%; inhibition in vivo at 500 µmol/kg [1, 17]: 43.5% |
| CCC(C)(C)C(=O)O[C@H]1C[C@@H](C)C=C2C=C[C@H](C)[C@H](CC[C@@H]3C[C@@H](O)CC(=O)O3)[C@H]21 [Simvastatin, reference compound] | 70% | – | – | – | – | – | – | – | – | – | % Reduction TG (triglycerides) ([1]; 150 μmol/kg i.p., plasma after 24 h): no effect |
| Cc1c(C)c2c(c(C)c1O)CCC(C)(C(=O)O)O2 (stereo not shown) [Trolox, 6-hydroxy-2,5,7,8-tetramethylchroman-2-carboxylic acid, reference compound] | – | – | – | – | – | – | – | – | > 300 µM | – | IC50 [5]: 25 µM; Percent Interaction with DPPH ([6]; compound 50 μΜ): 38%; Percent Interaction with DPPH ([6]; compound 100 μΜ): 90%; Percent Interaction with DPPH ([6]; compound 200 μΜ): 92% |
| S-nitroso-N-acetylpenicillamine [SNAP, reference compound] | – | – | – | – | – | – | – | – | – | – | NO Release ([2]; 100 μM compound, in water): 56.7 μΜ; NO Release ([2]; per 100 μM compound, DMSO/water 7/3): 56.3 μΜ |

Reference: publication PMC6982741, “Design, Synthesis and Study of Nitrogen Monoxide Donors as Potent Hypolipidaemic and Anti-Inflammatory Agents” (Molecules, 2019)
